Source: doi:10.1101/2025.05.21.654962v1 (biorxiv, 2025)

Experiments:
[1] = biological target: T1, NgUPPS (undecaprenyl diphosphate synthase) (Neisseria gonorrhoeae, UniProt Q5F5X2); assay: crystal structure; type: binding
T1 sequence (Q5F5X2 1-248): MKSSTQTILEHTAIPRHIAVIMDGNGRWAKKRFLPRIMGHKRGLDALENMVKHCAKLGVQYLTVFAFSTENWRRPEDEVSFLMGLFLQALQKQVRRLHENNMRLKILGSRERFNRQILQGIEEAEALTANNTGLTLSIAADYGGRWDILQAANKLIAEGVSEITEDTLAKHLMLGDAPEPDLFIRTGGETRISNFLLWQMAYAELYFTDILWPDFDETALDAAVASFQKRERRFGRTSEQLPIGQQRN

[2] = biological target: T1, NgUPPS (undecaprenyl diphosphate synthase); assay: pyrophosphatase-coupled phosphate release, Biomol Green; type: biochemical

O=C(O)c1cn2cc(Cl)ccc2n1 [4R-0623]
crystal structure (soaking); WAC-MS hit ([1]; region 1, two sites): 9OHJ (4R-0623)

Brc1ccsc1-c1ccn[nH]1 [4W-0801]
crystal structure (soaking); WAC-MS hit ([1]; region 3 (hydrophobic core)): 9OIV (4W-0801)

O=C(O)c1ccc(Br)cn1 [5Br-P]
crystal structure (soaking); WAC-MS hit ([1]; region 2): 9OJE (5Br-P)

Cc1ccc(O)c(-c2cc[nH]n2)c1 [BA-0843]
crystal structure (soaking); WAC-MS hit ([1]; region 3): 9OHP (BA-0843)

Nc1cc(-c2cccc(C(F)(F)F)c2)no1 [DA-0841]
crystal structure (soaking); WAC-MS hit ([1]; region 2): 9OIY (DA-0841)

Nc1cc(-c2ccc(C(F)(F)F)cc2)no1 [DA-0854]
crystal structure (soaking); WAC-MS hit ([1]; region 4 (distal end of tunnel)): 9OJ1 (DA-0854)

O=C(O)c1ccc(C(F)(F)F)cn1 [FC-0609]
crystal structure (soaking); WAC-MS hit ([1]; region 4): 9OJA (FC-0609)

O=C(O)c1cc(C(F)(F)F)ccn1 [FD-0739]
crystal structure (soaking); WAC-MS hit ([1]; region 2): 9OI6 (FD-0739)

O=C(O)c1ncccc1F [GF-0701]
crystal structure (soaking); WAC-MS hit ([1]; region 1, two sites): 9OIW (GF-0701)

Clc1ccc2nc(N3CCNCC3)sc2c1 [PS-0394]
crystal structure (soaking); WAC-MS hit ([1]; region 3, code printed PS-0394 with the PDB id but PS-3094): 9OJB (PS-0394)

NCc1cccc(O)c1 [PS-3756]
crystal structure (soaking); WAC-MS hit ([1]; region 1): 9OHO (PS-3756)

Brc1ccc(-c2cc[nH]n2)s1 [PS-4845]
crystal structure (soaking); WAC-MS hit ([1]; region 3): 9OI5 (PS-4845)

OCc1ccccc1Cl [PS-5485]
crystal structure (soaking); WAC-MS hit ([1]; region 1): 9OHB (PS-5485)

Cc1nonc1CO [PS-5549]
crystal structure (soaking); WAC-MS hit ([1]; region 1, two sites): 9OHI (PS-5549)

OCc1cccs1 [PS-5570]
crystal structure (soaking); WAC-MS hit ([1]; region 1, two sites): 9OHG (PS-5570)

O=C(Nc1cccc(Oc2ccc(C(=O)O)c(C(=O)O)c2)c1)c1ccc(-c2ccccc2)cc1 [compound 10, 4-{3-[(biphenyl-4-ylcarbonyl)amino]phenoxy}benzene-1,2-dicarboxylic acid]
IC50 [2]: 3.4 µM
